# Source: PubChem BioAssay (NCI)
#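 The compound was tested at five concentrations on cells cultured in 96-well plates, with a 48-hour exposure period. TGI: concentration producing complete growth inhibition.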
# Key:
# Test in all cases: NCI tumour cell line growth inhibition, 48 h
# UACC-257 melanoma = test system: UACC-257 melanoma
# HL-60(TB) leukemia = test system: HL-60(TB) leukemia
# HS 578T breast = test system: HS 578T breast
# T-47D breast = test system: T-47D breast
# SW-620 colon = test system: SW-620 colon
# MDA-N = test system: MDA-N
# LOX IMVI melanoma = test system: LOX IMVI melanoma
# UACC-62 melanoma = test system: UACC-62 melanoma
# A549 NSCLC = test system: A549 NSCLC
# M14 melanoma = test system: M14 melanoma
# K-562 leukemia = test system: K-562 leukemia
# MCF7 breast = test system: MCF7 breast
# BT-549 breast = test system: BT-549 breast
# DU-145 prostate = test system: DU-145 prostate
# SNB-19 CNS = test system: SNB-19 CNS
# NCI/ADR-RES ovarian = test system: NCI/ADR-RES ovarian
# NCI-H522 lung = test system: NCI-H522 lung
# HCT-15 colon = test system: HCT-15 colon
# MOLT-4 leukemia = test system: MOLT-4 leukemia
# U251 CNS = test system: U251 CNS
# HOP-92 NSCLC = test system: HOP-92 NSCLC
# SF-539 CNS = test system: SF-539 CNS
# NCI-H460 lung = test system: NCI-H460 lung
# NCI-H226 lung = test system: NCI-H226 lung
# UO-31 renal = test system: UO-31 renal
# 786-0 renal = test system: 786-0 renal
# COLO 205 colon = test system: COLO 205 colon
# HCT-116 colon = test system: HCT-116 colon
# PC-3 prostate = test system: PC-3 prostate
# OVCAR-3 ovarian = test system: OVCAR-3 ovarian
# ACHN renal = test system: ACHN renal
# SNB-75 CNS = test system: SNB-75 CNS
# OVCAR-8 ovarian = test system: OVCAR-8 ovarian
# OVCAR-5 ovarian = test system: OVCAR-5 ovarian
# RXF 393 renal = test system: RXF 393 renal
# HT29 colon = test system: HT29 colon
# KM12 colon = test system: KM12 colon
# HOP-62 NSCLC = test system: HOP-62 NSCLC
# CAKI-1 renal = test system: CAKI-1 renal
# CCRF-CEM leukemia = test system: CCRF-CEM leukemia
# MALME-3M melanoma = test system: MALME-3M melanoma
# MDA-MB-231 breast = test system: MDA-MB-231 breast
# TK-10 renal = test system: TK-10 renal
# EKVX NSCLC = test system: EKVX NSCLC
# HCC-2998 colon = test system: HCC-2998 colon
# SK-MEL-5 melanoma = test system: SK-MEL-5 melanoma
# SN12C renal = test system: SN12C renal
# A498 renal = test system: A498 renal
# SF-295 CNS = test system: SF-295 CNS
# IGROV1 ovarian = test system: IGROV1 ovarian
# MDA-MB-435 = test system: MDA-MB-435
# RPMI-8226 leukemia = test system: RPMI-8226 leukemia
# SK-MEL-28 melanoma = test system: SK-MEL-28 melanoma
# OVCAR-4 ovarian = test system: OVCAR-4 ovarian
# SK-MEL-2 melanoma = test system: SK-MEL-2 melanoma
# SK-OV-3 ovarian = test system: SK-OV-3 ovarian
# NCI-H23 lung = test system: NCI-H23 lung
# SF-268 CNS = test system: SF-268 CNS
smiles,measurement,setting,value
CC(C)(C)OC(=O)C1=C2C=C(O)C=CC2(C)N(Cc2ccccc2)C1=N (stereo unspecified),TGI,UACC-257 melanoma,18.7 µM
same,TGI,HL-60(TB) leukemia,6.35 µM
same,TGI,HS 578T breast,> 91.6 µM
same,TGI,T-47D breast,10.2 µM
same,TGI,SW-620 colon,5.69 µM
same,TGI,MDA-N,20.2 µM
same,TGI,LOX IMVI melanoma,8.44 µM
same,TGI,UACC-62 melanoma,29 µM
same,TGI,A549 NSCLC,28.1 µM
same,TGI,M14 melanoma,10.4 µM
same,TGI,K-562 leukemia,> 32.9 µM
same,TGI,MCF7 breast,9.99 µM
same,TGI,BT-549 breast,4.58 µM
same,TGI,DU-145 prostate,12.8 µM
same,TGI,SNB-19 CNS,33.8 µM
same,TGI,NCI/ADR-RES ovarian,> 82.8 µM
same,TGI,NCI-H522 lung,4 µM
same,TGI,HCT-15 colon,14.9 µM
same,TGI,MOLT-4 leukemia,> 32.7 µM
same,TGI,U251 CNS,43.3 µM
same,TGI,HOP-92 NSCLC,5.91 µM
same,TGI,SF-539 CNS,12.7 µM
same,TGI,NCI-H460 lung,34.7 µM
same,TGI,NCI-H226 lung,28.6 µM
same,TGI,UO-31 renal,10.7 µM
same,TGI,786-0 renal,12.7 µM
same,TGI,COLO 205 colon,6.24 µM
same,TGI,HCT-116 colon,9.83 µM
same,TGI,PC-3 prostate,19.8 µM
same,TGI,OVCAR-3 ovarian,13.8 µM
same,TGI,ACHN renal,5.56 µM
same,TGI,SNB-75 CNS,> 56.7 µM
same,TGI,OVCAR-8 ovarian,10.6 µM
same,TGI,OVCAR-5 ovarian,33.1 µM
same,TGI,RXF 393 renal,6.96 µM
same,TGI,HT29 colon,14 µM
same,TGI,KM12 colon,23.1 µM
same,TGI,HOP-62 NSCLC,30.7 µM
same,TGI,CAKI-1 renal,4.19 µM
same,TGI,CCRF-CEM leukemia,> 38.2 µM
same,TGI,MALME-3M melanoma,10.9 µM
same,TGI,MDA-MB-231 breast,21.6 µM
same,TGI,TK-10 renal,10.2 µM
same,TGI,EKVX NSCLC,11.5 µM
same,TGI,HCC-2998 colon,29.3 µM
same,TGI,SK-MEL-5 melanoma,15.9 µM
same,TGI,SN12C renal,25.5 µM
same,TGI,A498 renal,26.2 µM
same,TGI,SF-295 CNS,28.2 µM
same,TGI,IGROV1 ovarian,16.6 µM
same,TGI,MDA-MB-435,21.5 µM
same,TGI,RPMI-8226 leukemia,> 27.1 µM
same,TGI,SK-MEL-28 melanoma,24.8 µM
same,TGI,OVCAR-4 ovarian,19.1 µM
same,TGI,SK-MEL-2 melanoma,33.1 µM
same,TGI,SK-OV-3 ovarian,42.1 µM
same,TGI,NCI-H23 lung,31.2 µM
CC(=O)ON1C(=O)c2cccc3cccc(c23)C1=O,TGI,UACC-257 melanoma,67 µM
same,TGI,HL-60(TB) leukemia,45.5 µM
same,TGI,HS 578T breast,79.3 µM
same,TGI,T-47D breast,63.8 µM
same,TGI,SW-620 colon,> 100 µM
same,TGI,MDA-N,93.3 µM
same,TGI,LOX IMVI melanoma,57.3 µM
same,TGI,UACC-62 melanoma,52.5 µM
same,TGI,A549 NSCLC,> 100 µM
same,TGI,M14 melanoma,90.9 µM
same,TGI,K-562 leukemia,> 100 µM
same,TGI,MCF7 breast,> 100 µM
same,TGI,BT-549 breast,74.5 µM
same,TGI,DU-145 prostate,40.2 µM
same,TGI,SF-268 CNS,> 100 µM
same,TGI,SNB-19 CNS,> 100 µM
same,TGI,NCI/ADR-RES ovarian,> 100 µM
same,TGI,NCI-H522 lung,43.6 µM
same,TGI,HCT-15 colon,> 100 µM
same,TGI,MOLT-4 leukemia,43 µM
same,TGI,U251 CNS,> 100 µM
same,TGI,HOP-92 NSCLC,> 100 µM
same,TGI,SF-539 CNS,48.3 µM
same,TGI,NCI-H460 lung,41.7 µM
same,TGI,UO-31 renal,> 100 µM
same,TGI,COLO 205 colon,86.7 µM
same,TGI,HCT-116 colon,41.7 µM
same,TGI,PC-3 prostate,> 100 µM
same,TGI,OVCAR-3 ovarian,68.9 µM
same,TGI,ACHN renal,> 100 µM
same,TGI,OVCAR-8 ovarian,> 100 µM
same,TGI,OVCAR-5 ovarian,> 100 µM
same,TGI,RXF 393 renal,25.5 µM
same,TGI,HT29 colon,> 100 µM
same,TGI,KM12 colon,> 100 µM
same,TGI,HOP-62 NSCLC,85.4 µM
same,TGI,CAKI-1 renal,49 µM
same,TGI,CCRF-CEM leukemia,> 100 µM
same,TGI,MALME-3M melanoma,45 µM
same,TGI,MDA-MB-231 breast,> 100 µM
same,TGI,TK-10 renal,88.5 µM
same,TGI,EKVX NSCLC,> 100 µM
same,TGI,HCC-2998 colon,> 100 µM
same,TGI,SK-MEL-5 melanoma,28.2 µM
same,TGI,A498 renal,71.5 µM
same,TGI,SF-295 CNS,> 100 µM
same,TGI,IGROV1 ovarian,> 100 µM
same,TGI,MDA-MB-435,39.8 µM
same,TGI,RPMI-8226 leukemia,53.4 µM
same,TGI,SK-MEL-28 melanoma,44.6 µM
same,TGI,OVCAR-4 ovarian,40.7 µM
same,TGI,SK-MEL-2 melanoma,67.6 µM
same,TGI,SK-OV-3 ovarian,> 100 µM
same,TGI,NCI-H23 lung,50 µM
